# Source: patent publication US9394295B2, “Antibacterial homopiperidinyl substituted 3,4-dihydro-1H-[1,8]naphthyridinones” (Janssen Sciences Ireland UC, priority 2011, dated 2016)
# pIC50: −log10 of the molar value. Read-outs that look alike come from different tables or passages of the source.
# Experiments:
# [1] = biological target: T1, S. aureus ATCC 29213 FabI (Staphylococcus aureus, UniProt Q6GI75); test: Staphylococcus aureus FabI enzyme inhibition assay; type: biochemical; details: 30 minutes at room temperature, NADH consumption
# T1 sequence (Q6GI75 1-256): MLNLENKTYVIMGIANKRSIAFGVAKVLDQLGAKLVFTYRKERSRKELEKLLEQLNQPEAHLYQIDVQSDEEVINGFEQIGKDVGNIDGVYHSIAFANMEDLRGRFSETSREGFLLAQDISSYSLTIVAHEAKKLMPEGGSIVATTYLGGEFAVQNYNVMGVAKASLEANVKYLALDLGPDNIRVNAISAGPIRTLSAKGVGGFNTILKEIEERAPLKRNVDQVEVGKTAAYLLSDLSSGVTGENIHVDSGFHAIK
# Method: FabI enzyme inhibition assays were carried out in half-area, 384-well microtitre plates. Compounds were evaluated in 40-μl assay mixtures containing 100 mM NaADA, pH 6.5 (ADA=N-[2-acetamido]-2iminodiacetic acid), 250 μM crotonoyl-CoA, 625 μM NADH and 50 μg/ml S. aureus ATCC 29213 FabI Inhibitors were typically varied over the range of 50 to 0.39 μM. The reaction mixtures were incubated for 30 minutes at room temperature and the reaction was stopped by adding 200 mM Tris buffer (pH 9.0) to create a pH-shift. The consumption of NADH was monitored by measuring the change in absorbance at […]. By comparing sample readings to those of negative (absence of compound) and positive (absence of enzyme) controls, the percent inhibition of enzymatic activity of the compounds was determined. A best-fit curve is fitted by a minimum of squares method. From this an IC50-value (expressed in μg/ml), resulting in 50% inhibition of enzymatic activity, was obtained.
# [2] = system: Staphylococcus aureus ATCC 29213; test: Antibacterial susceptibility testing: IC90 determination (STA); type: cell-based; details: ATCC29213, S. aureus ATCC 29213, 90% inhibitory concentration for bacterial growth, read-out: STA (361.159) IC90
# Method: (§1) The following bacteria were used: Staphylococcus aureus ATCC 29213, methicillin-resistant Staphylococcus aureus (MRSA) ATCC 700788 and Escherichia coli ATCC 35218. The bacteria used in this study were grown overnight in flasks containing 100 ml Mueller-Hinton broth (Difco cat. nr. 0757-17) in sterile de-ionized water, with shaking, at 37° C. Stocks were store at −70° C. until use.
# (§2) Bacteria were incubated on a tryptic soy agar plate containing 5% sheep blood (Becton Dickinson cat. nr. 254053) for 18-24 hours at 35° C. in aerobic conditions (first passage). For the second passage, fresh Mueller-Hinton broth is inoculated with 5-10 colonies and grown overnight at 35° C. until turbidity (reaching log-phase) in aerobic conditions is reached. The bacterial suspension is then adjusted to 0.5 McFarland density and further diluted 1:100 in Mueller Hinton broth medium. This is used as inoculum.
# (§3) MIC assays were performed by the broth microdilution method in a 96-well format (flat-bottom microtitre plates) with a final volume of 0.1 ml Mueller Hinton broth containing two-fold serial dilutions of compounds and inoculated with 5×10^5 CFU/ml of bacteria (standard inoculum size according to CLSI guidelines). Inhibitors are typically varied over the range of 63 to 0.49 μM. The final DMSO concentration in the assay was 1.25% (maximum tolerable DMSO concentration=6%). In the assays where the effect of human serum on the activity of the compounds against S. aureus was tested, human serum was added at a final concentration of 10%. The plates were incubated at 35° C. for 16-20 hours. At the end of incubation the bacterial growth was quantified fluorometrically. For this, resazurin was added to all wells and the plates were re-incubated. The incubation time is dependent on the type of bacteria. A change in color from blue to pink indicated the growth of bacteria. The fluorescence was read in computer-controlled fluorometer (Fluoroskan Ascent FL, Labsystems) at an excitation wavelength 540 nm and an emission wavelength of 590 nm. The % growth inhibition achieved by the compounds was calculated according to standard methods. The IC90 (expressed in μg/ml) was defined as the 90% inhibitory concentration for bacterial growth. A panel of reference compounds were simultaneously tested for QC approval.
# S. aureus = test: Antibacterial susceptibility testing: IC90 determination with 10% human serum (STA + 10% HS); type: cell-based; details: Staphylococcus aureus; S. aureus with human serum at final concentration of 10%; read-out: STA + 10% HS (361.169) IC90
# Method: as §1, §2, §3
# The results are depicted in the table D2 below (STA+10% HS).
# [3] = Cytotoxicity MTT assay (TOX HELAM); type: cell-based; details: human, HelaM cells, read-out: TOX HELAM (222.125) CC50
# Method: Cytotoxicity of the compounds was evaluated using the MTT assay. Human HelaM cells grown in 96-well plates were exposed to serial dilutions of the tested compounds (final volume of 0.2 ml) and incubated for 72 hours at 37° C. and 5% CO2. Inhibitors are typically varied over the range of 25 to 0.8 μM. The final DMSO concentration in the assay is 0.5%. MTT (3-(4,5-Dimethylthiazol-2-yl)-2,5-diphenyltetrazolium bromide, a tetrazole) was added and reduced to purple formazan only in living cells. Solubilization of the formazan crystals was achieved by adding 100 μl 2-propanol. Cell viability was determined by measuring the absorbance of the reduced formazan, giving a purple color, at 540 nm and 690 nm. The absorbance measured at 690 nm was automatically subtracted from the absorbance at 540 nm, to eliminate the effects of non-specific absorption. The percent cytotoxicity achieved by the compounds was calculated according to standard methods. Cytotoxicity is reported as CC50, the concentration that causes a 50% reduction in cell viability.
# The results are depicted in the table D2 below (TOX HELAM).
# [4] = In vivo pharmacokinetic and oral bioavailability; details: male Swiss mice; for half-life: read-out: Half life (t1/2) (converted)
# Method: The in vivo pharmacokinetics and oral bioavailability of the compound of the examples was/is investigated in male Swiss mice (fed) following single intravenous (i.v.) bolus and oral (p.o.) administration. For the i.v. and p.o. solution formulations, the compound was/is dissolved in a 20% HP-β-CD solution. The pH of the formulations was/is around pH 4. All i.v. formulations were isotonic.
# [5] = mouse, plasma, iv, i.v. 2.5 mg/kg
# [6] = mouse, plasma, po, p.o. 10 mg/kg
Compound,pIC50 [1],IC90 [2],IC90 (S. aureus),CC50 at 72 h [3],also measured
O=C1CCc2cc(/C=C/C(=O)N3CCCC(Cc4ccccc4)CC3)cnc2N1 (stereo not drawn) [Co. No. 3],6.01,3.94 µg/mL,11.2 µg/mL,> 9.78 µg/mL,
O=C1CCc2cc(/C=C/C(=O)N3CC=C(Cc4ccccc4)CCC3)cnc2N1 [Co. No. 5],,4.66 µg/mL,10.9 µg/mL,> 9.73 µg/mL,
COc1cccc(C2=CCN(C(=O)/C=C/c3cnc4c(c3)CCC(=O)N4)CCC2)c1 [Co. No. 6],,3.21 µg/mL,6.32 µg/mL,> 10.1 µg/mL,
Cc1ccccc1C1=CCN(C(=O)/C=C/c2cnc3c(c2)CCC(=O)N3)CCC1 [Co. No. 7],5.94,1.47 µg/mL,2.97 µg/mL,> 9.73 µg/mL,
COc1ccccc1C1=CCN(C(=O)/C=C/c2cnc3c(c2)CCC(=O)N3)CCC1 [Co. No. 9],6.01,0.99 µg/mL,1.48 µg/mL,> 10.1 µg/mL,
O=C1CCc2cc(/C=C/C(=O)N3CC=C(c4cccc(Cl)c4)CCC3)cnc2N1 [Co. No. 12],5.90,0.71 µg/mL,4.37 µg/mL,8.23 µg/mL,
COc1ccc(F)cc1C1=CCN(C(=O)/C=C/c2cnc3c(c2)CCC(=O)N3)CCC1 [Co. No. 13],5.86,1.43 µg/mL,3.05 µg/mL,> 10.6 µg/mL,
O=C1CCc2cc(/C=C/C(=O)N3CC=C(c4ccc(Cl)cc4)CCC3)cnc2N1 [Co. No. 18],5.85,1.52 µg/mL,5.08 µg/mL,6.85 µg/mL,
O=C1CCc2cc(/C=C/C(=O)N3CCC=C(c4ccccc4F)CC3)cnc2N1 [Co. No. 23],5.97,0.18 µg/mL,0.35 µg/mL,> 9.83 µg/mL,
O=C1CCc2cc(/C=C/C(=O)N3CCC=C(c4ccc(Cl)cc4)CC3)cnc2N1 [Co. No. 24],5.72,1.52 µg/mL,6.17 µg/mL,7.25 µg/mL,
COc1ccc(C2=CCN(C(=O)/C=C/c3cnc4c(c3)CCC(=O)N4)CCC2)cc1 [Co. No. 25],5.67,3.06 µg/mL,5.83 µg/mL,> 10.1 µg/mL,
COc1ccc(C2=CCCN(C(=O)/C=C/c3cnc4c(c3)CCC(=O)N4)CC2)cc1 [Co. No. 26],5.78,1.46 µg/mL,2.86 µg/mL,> 10.1 µg/mL,
CC1(c2ccccc2)CCCN(C(=O)/C=C/c2cnc3c(c2)CCC(=O)N3)CC1 (stereo not drawn) [Co. No. 28],~5.78,2.4 µg/mL,7.42 µg/mL,> 9.78 µg/mL,
COc1cccc(C2=CCCN(C(=O)/C=C/c3cnc4c(c3)CCC(=O)N4)CC2)c1 [Co. No. 29],5.62,0.78 µg/mL,1.66 µg/mL,> 10.6 µg/mL,
COc1cccc(F)c1C1=CCCN(C(=O)/C=C/c2cnc3c(c2)CCC(=O)N3)CC1 [Co. No. 31],5.79,0.21 µg/mL,0.26 µg/mL,> 10.6 µg/mL,
O=C1CCc2cc(/C=C/C(=O)N3CCc4ccccc4CC3)cnc2N1 [Co. No. 32],5.82,21.4 µg/mL,20.2 µg/mL,> 8.73 µg/mL,
O=C1CCc2cc(/C=C/C(=O)N3CCCC(n4cccn4)CC3)cnc2N1 (stereo not drawn) [compound 49],5.34,,,,
O=C1CCc2cc(/C=C/C(=O)N3CCCC(n4ccnn4)CC3)cnc2N1 (stereo not drawn) [compound 50],5.66,,,,

# Second part, led by results:
pIC50 [1],IC90 [2],IC90 (S. aureus),Compound,CC50 at 72 h [3],also measured
6.18,3.42 µg/mL,3.54 µg/mL,O=C1CCc2cc(/C=C/C(=O)N3CCCC(c4ccccc4)CC3)cnc2N1 (stereo not drawn) [Co. No. 4],> 9.43 µg/mL,
6.07,0.69 µg/mL,0.84 µg/mL,Cc1ccccc1C1=CCCN(C(=O)/C=C/c2cnc3c(c2)CCC(=O)N3)CC1 [Co. No. 8],9.3 µg/mL,
6.06,0.09 µg/mL,0.2 µg/mL,COc1ccccc1C1=CCCN(C(=O)/C=C/c2cnc3c(c2)CCC(=O)N3)CC1 [Co. No. 10],> 10.1 µg/mL,"Vdz ([4]; i.v. 2.5 mg/kg): 2.0 L/kg; AUC(0-inf) [4, 5]: 2160 ng·h/mL; C0 ([4]; mouse, plasma, iv, i.v. 2.5 mg/kg, 20% HP-β-CD solution): 3400 ng/mL; half-life [4, 5]: 1.2 h; clearance ([4]; mouse, plasma, iv, i.v. 2.5 mg/kg, read-out: Plasma clearance Cl (converted)): 20 mL/min/kg; bioavailability ([4]; mouse, plasma, po, p.o. 10 mg/kg vs i.v. 2.5 mg/kg): 78%; AUC(0-inf) [4, 6]: 7090 ng·h/mL; Tmax [4, 6]: 0.5 h; Cmax ([4]; mouse, plasma, po, p.o. 10 mg/kg, 20% HP-β-CD solution): 3740 ng/mL; half-life [4, 6]: 2 h"
6.10,0.39 µg/mL,1.02 µg/mL,Cc1ccc(F)cc1C1=CCCN(C(=O)/C=C/c2cnc3c(c2)CCC(=O)N3)CC1 [Co. No. 15],8.57 µg/mL,
6.02,1.49 µg/mL,3.01 µg/mL,Cc1ccc(C)c(C2=CCN(C(=O)/C=C/c3cnc4c(c3)CCC(=O)N4)CCC2)c1 [Co. No. 16],9.09 µg/mL,
6.02,0.33 µg/mL,0.72 µg/mL,Cc1ccc(C)c(C2=CCCN(C(=O)/C=C/c3cnc4c(c3)CCC(=O)N4)CC2)c1 [Co. No. 17],4.11 µg/mL,
6.11,0.63 µg/mL,1.15 µg/mL,O=C1CCc2cc(/C=C/C(=O)N3CC=C(c4ccccc4Cl)CCC3)cnc2N1 [Co. No. 20],8.52 µg/mL,
6.03,< 0.2 µg/mL,0.36 µg/mL,O=C1CCc2cc(/C=C/C(=O)N3CCC=C(c4ccccc4Cl)CC3)cnc2N1 [Co. No. 21],9.24 µg/mL,
6.18,0.59 µg/mL,1.03 µg/mL,O=C1CCc2cc(/C=C/C(=O)N3CC=C(c4ccccc4F)CCC3)cnc2N1 [Co. No. 22],12.5 µg/mL,
6.02,,,O=C1CCc2cc(/C=C/C(=O)N3CC=C(c4ccccc4)CCC3)cnc2N1 [compound 1],,
